Tested on: 129 MEFs transduced with OK (Oct4 and Klf4)
Experiment: Screen for iPSC generation from OK-transduced 129 MEFs (ESC-like colony morphology, ALP staining)
Type: cell-based, mouse
Protocol: Unmodified MEFs derived from E13-14 embryos of the 129 mice were used for the initial screen. MEFs were plated on Matrigel at 3.5×10^4 cells/well of a 6-well plate and transduced with OK (retroviral vectors expressing Oct4 and Klf4) alone. Within 14-21 days, treated cells were assessed for the appearance of colonies that had the characteristic embryonic stem cell (ESC), colony morphology and were positive for the pluripotency marker alkaline phosphatase (ALP). Such OK-transduced cells generated only a few small non-compact colonies, which were weakly positive for ALP expression. These colonies initially appeared within 21 days after viral transduction and were difficult to expand. Therefore, such assay system offered a clean background for the identification of small molecules having desirable reprogramming inducing activity. Using this system, compounds from a library of around 2000 known small molecules (see Experimental Procedures below) were screened and were identified as hits when they induced the appearance of ESC colonies that were strongly positive for ALP within 14-21 days after treatment. This image-based method provided a more accurate assessment of reprogramming as compared to homogenous reporter-based assay. BIX appeared to have the strongest effect with reproducible induction of more than 1-2 compact ESC-like colonies with high ALP expression. We observed that when MEFs were treated with BIX after OK viral transduction, compact colonies with strong ALP expression could be readily detected within approximately 14-21 days. These cells were also positive for Nanog, Oct4 and SSEA-1 expression. […] However, the reprogramming efficiency in MEFs transduced with OK and treated with BIX was still low, about 2 colonies/3.5×10^4 cells, in comparison to the four factor-induced reprogramming of MEFs or the OK/BIX NPC reprogramming (Shi, Y. et al., Cell Stem Cell, 2:525-528 (2008)). Therefore, we conducted a second screen using a similar protocol, but where BIX was added to the basal media after OK viral transduction. This provided a more permissive platform to identify new small molecules that could further improve reprogramming efficiency. More importantly, this second screen could facilitate discovery of small molecules that impact reprogramming in a more specific manner, for example by acting on signal transduction pathways rather than on histone or DNA modifying enzymes. In this second screen, we again assayed the library of around 2000 known small molecules (see Experimental Procedures), and confirmed two compounds that were able to act in a synergistic manner with BIX to improve reprogramming based on the criteria of the screen. […] Therefore, RG108 was not pursued further for this study. […]

With `COc1cc2nc(N3CCCN(C)CC3)nc(NC3CCN(Cc4ccccc4)CC3)c2cc1OC` [BIX01294] the reprogramming efficiency (MEFs transduced with OK and treated with compound) was “about 2 colonies/3.5×10^4 cells”, the “number of ALP+ colonies that closely resemble the mESC morphology” value (OK-transduced MEFs) was “about 2 colonies” and the “induction of compact ESC-like colonies with high ALP expression” value (primary screen, compounds 0.5-2 μM, 14-21 days, 3.5×10^4 cells/well) was 1-2 colonies.
